Measured values: US20240150368A1, “ULK INHIBITORS AND METHODS OF USE THEREOF” (Deciphera Pharmaceuticals, LLC, priority 2022, published 2024)
pIC50: −log10 of the molar value.

Legend:
ULK1 kinase = molecular target: T1, ULK1 kinase (Homo sapiens, UniProt O75385, E37A/K38A); experiment: Biochemical assay for ULK1 (coupled pyruvate kinase/lactate dehydrogenase assay); conditions: 1 mM ATP, 0.1 nM ULK1; read-out: ULK1 (inhibition of biochemical activity), IC50
T1 construct: (residues 1-283; ID NO: 1); purchased Beryllium
T1 sequence (O75385 1-283 E37A/K38A): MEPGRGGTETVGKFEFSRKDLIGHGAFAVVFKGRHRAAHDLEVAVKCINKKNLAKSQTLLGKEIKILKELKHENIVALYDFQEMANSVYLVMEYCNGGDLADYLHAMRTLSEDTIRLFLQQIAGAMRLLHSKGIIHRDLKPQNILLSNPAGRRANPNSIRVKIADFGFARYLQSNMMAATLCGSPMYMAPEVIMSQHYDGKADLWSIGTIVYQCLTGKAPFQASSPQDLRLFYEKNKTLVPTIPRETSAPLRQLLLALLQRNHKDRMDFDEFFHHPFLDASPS
Experimental: Biochemical Assay for ULK1 (SEQ. ID NO: 1)
Activity of ULK1 kinase was determined spectroscopically using a coupled pyruvate kinase/lactate dehydrogenase assay that continuously monitors the ATP hydrolysis-dependent oxidation of NADH (e.g., Schindler et al. Science (2000) 289: 1938-1942). Assays were conducted in 384-well plates (100 μL final volume) using 0.1 nM ULK1 (from Beryllium), 0.075 mM peptide substrate (YANWLAASIYLDGKKK), 1.5 units pyruvate kinase, 2.1 units lactate dehydrogenase, 1 mM phosphoenol pyruvate, 0.28 mM NADH and 1 mM ATP in assay buffer (100 mM Tris, pH 7.5, 15 mM MgCl2, 0.5 mM DTT, 0.004% (w/v) BSA, and 0.004% Triton X-100). Inhibition of ULK1 was measured by adding serial diluted test compound (final assay concentration of 1% DMSO). A decrease in absorption at 340 nm was monitored continuously for 6 h at 30° C. on a multi-mode microplate reader (BioTek). The reaction rate was calculated using the 2-3 h time frame. The reaction rate at each concentration of compound was converted to percent inhibition using controls (i.e., reaction with no test compound and reaction with a known inhibitor) and IC50 values were calculated using software routines in Prism (GraphPad software).

[1] = system: ULK kinase substrate ATG13 (pS318-ATG13) in A549 (KRAS mutant) cells; experiment: pATG13 levels of mutant KRas A549 cells after treatment with ULK inhibitors in combination with trametinib (ELISA); format: cell-based, human
Experimental: Cellular Inhibition of ULK Kinase Substrate ATG13 Protein pATG13 Levels of Mutant KRas A549 Cells after Treatment with ULK Inhibitors in Combination with Trametinib
(§1) A549 (KRAS mutant) human lung cancer cells (6,000 cells/well) were added to a 384-well tissue-culture treated plate in 50 μL of pre-warmed DMEM medium supplemented with 10% characterized fetal bovine serum (Invitrogen, Carlsbad, CA), 100 units/mL penicillin G, and 100 μg/mL streptomycin and allowed to grow overnight at 37° C., 5% CO2, and 95% humidity. The following day, 10 μL of media containing trametinib or DMSO as a control was added to wells. The final concentration of trametinib in wells was 250 nM. A dose response of a test compound (0.6 μL per well) was added. DMSO (0.6 μL) was added to control wells. The plate was briefly shaken to mix wells and then incubated at 37° C. overnight. The next day, the media was aspirated and cells were washed with Dulbecco's Phosphate Buffered Saline (Gibco). Cells were lysed using MPER lysis buffer (Pierce, Rockford, IL) containing Halt Phosphatase and Protease Inhibitors (Pierce, Rockford, IL) and Phosphatase inhibitor cocktail 2 (Sigma, St. Louis, MO) at 4° C. for 10 min with shaking.
(§2) Cellular levels of phospho-Serine 318 ATG13 (pATG13) were measured via an ELISA method. Total ATG13 Antibody (Cell Signaling Cat #13273) was used to coat the wells. The plate was incubated at 4° C. overnight and washed with ELISA wash buffer (Biolegend Cat #421601). The wells were then blocked with assay diluent (Biolegend Cat #421203) for 1 h at rt. Plate wells were washed with ELISA wash buffer. Cell lysate was added to wells and incubated at rt for 2 h. Plate wells were washed with ELISA wash buffer. Biotinylated pS318-ATG13 antibody (Rockland Immunochemicals Cat #600-401-C49) was diluted in assay diluent and added to each well and incubated at rt for 1 h. Plate wells were washed with ELISA wash buffer. Streptavidin linked to horseradish peroxidase (Thermo Fisher Cat #21140) was diluted in assay diluent and added to each well and incubated at rt for 1 h. Plate wells were washed with ELISA wash buffer. High sensitivity TMB substrate (Biolegend Cat #421101) was added to each well and incubated at rt for 20 min. The reaction was stopped with 2N Sulfuric Acid. The plate was analyzed at on a plate reader measuring absorbance at 450 nm and 540 nm (background). Signal was calculated by first subtracting the background absorbance at 540 nm from the absorbance at 450 nm for each well. Next, the background corrected absorbance at 450 nm from blank wells was subtracted from test wells. Data was compared to control wells to determine % ATG13 phosphorylation. GraphPad Prism was used to calculate IC50 values.

[2] = system: ULK kinase substrate ATG13 (pS318-ATG13) in MiaPaCa-2 cells; experiment: pATG13 levels of mutant KRas MiaPaCa-2 cells after treatment with ULK inhibitors in combination with trametinib (ELISA); format: cell-based, human
Experimental: pATG13 Levels of Mutant KRas MiaPaCa-2 Cells after Treatment with ULK Inhibitors in Combination with Trametinib
as §1, with “MiaPaCa-2” for “A549 (KRAS mutant)”, “pancreatic” for “lung”, “(10000” for “(6,000”, “G,” for “G, and”, “streptomycin, and 2.5% Horse Serum” for “streptomycin”, “minutes” for “min”
as §2, with “2.0N sulfuric acid.” for “2N Sulfuric Acid.”

ULK2 kinase = molecular target: T2, ULK2 kinase (Homo sapiens, UniProt Q8IYT8); experiment: Biochemical assay for ULK2 (coupled pyruvate kinase/lactate dehydrogenase assay); conditions: 1 mM ATP, 1 nM ULK2; read-out: ULK2 (inhibition of biochemical activity), IC50
T2 construct: (residues 1-306 with N-terminal GST and His tag; ID NO: 2); purchased Signal Chem U02-11G
T2 sequence (Q8IYT8 with tags, fused parts or gaps): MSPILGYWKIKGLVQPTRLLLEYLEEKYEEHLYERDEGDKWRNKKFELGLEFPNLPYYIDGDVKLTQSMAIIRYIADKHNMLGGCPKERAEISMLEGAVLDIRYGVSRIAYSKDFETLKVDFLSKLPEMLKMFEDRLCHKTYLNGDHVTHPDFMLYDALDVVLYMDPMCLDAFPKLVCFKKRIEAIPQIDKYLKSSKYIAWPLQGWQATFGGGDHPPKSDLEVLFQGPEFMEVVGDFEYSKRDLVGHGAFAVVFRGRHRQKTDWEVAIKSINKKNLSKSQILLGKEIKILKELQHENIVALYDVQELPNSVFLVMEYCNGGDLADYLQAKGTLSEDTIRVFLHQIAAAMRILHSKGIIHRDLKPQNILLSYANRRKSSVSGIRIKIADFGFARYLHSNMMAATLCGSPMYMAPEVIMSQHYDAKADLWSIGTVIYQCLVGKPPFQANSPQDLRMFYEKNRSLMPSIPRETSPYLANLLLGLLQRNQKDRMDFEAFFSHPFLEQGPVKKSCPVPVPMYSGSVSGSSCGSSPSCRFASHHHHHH
Experimental: Biochemical Assay for ULK2 (SEQ. ID NO: 2)
Activity of ULK2 kinase was determined spectroscopically using a coupled pyruvate kinase/lactate dehydrogenase assay that continuously monitors the ATP hydrolysis-dependent oxidation of NADH (e.g., Schindler et al. Science (2000) 289: 1938-1942). Assays were conducted in 384-well plates (100 μL final volume) using 1 nM ULK2 (Signal Chem U02-11G), 200 μM ULKtide, 1.5 units pyruvate kinase, 2.1 units lactate dehydrogenase, 1 mM phosphoenol pyruvate, 0.28 mM NADH and 1 mM ATP in assay buffer (100 mM Tris, pH 7.5, 15 mM MgCl2, 0.5 mM DTT, 0.1% octyl-glucoside, 0.002% (w/v) BSA, and 0.002% Triton X-100). Inhibition of ULK2 was measured by adding serial diluted test compound (final assay concentration of 1% DMSO). A decrease in absorption at 340 nm was monitored continuously for 6 h at 30° C. on a multi-mode microplate reader (BioTek). The reaction rate was calculated using the 2-3 h time frame. The reaction rate at each concentration of compound was converted to percent inhibition using controls (i.e., reaction with no test compound and reaction with a known inhibitor) and IC50 values were calculated by fitting a four-parameter sigmoidal curve to the data using Prism (GraphPad software).

LRRK2 kinase = molecular target: T3, LRRK2 kinase (Homo sapiens, UniProt Q5S007); experiment: Biochemical assay for LRRK2 (coupled pyruvate kinase/lactate dehydrogenase assay); conditions: 26.4 nM LRRK2, 1 mM ATP; read-out: LRRK2 (inhibition of LRRK2 kinase activity, IC50)
T3 construct: (residues 970-2528; ID NO; 3); purchased Thermo Fisher
T3 sequence (Q5S007 with tags, fused parts or gaps): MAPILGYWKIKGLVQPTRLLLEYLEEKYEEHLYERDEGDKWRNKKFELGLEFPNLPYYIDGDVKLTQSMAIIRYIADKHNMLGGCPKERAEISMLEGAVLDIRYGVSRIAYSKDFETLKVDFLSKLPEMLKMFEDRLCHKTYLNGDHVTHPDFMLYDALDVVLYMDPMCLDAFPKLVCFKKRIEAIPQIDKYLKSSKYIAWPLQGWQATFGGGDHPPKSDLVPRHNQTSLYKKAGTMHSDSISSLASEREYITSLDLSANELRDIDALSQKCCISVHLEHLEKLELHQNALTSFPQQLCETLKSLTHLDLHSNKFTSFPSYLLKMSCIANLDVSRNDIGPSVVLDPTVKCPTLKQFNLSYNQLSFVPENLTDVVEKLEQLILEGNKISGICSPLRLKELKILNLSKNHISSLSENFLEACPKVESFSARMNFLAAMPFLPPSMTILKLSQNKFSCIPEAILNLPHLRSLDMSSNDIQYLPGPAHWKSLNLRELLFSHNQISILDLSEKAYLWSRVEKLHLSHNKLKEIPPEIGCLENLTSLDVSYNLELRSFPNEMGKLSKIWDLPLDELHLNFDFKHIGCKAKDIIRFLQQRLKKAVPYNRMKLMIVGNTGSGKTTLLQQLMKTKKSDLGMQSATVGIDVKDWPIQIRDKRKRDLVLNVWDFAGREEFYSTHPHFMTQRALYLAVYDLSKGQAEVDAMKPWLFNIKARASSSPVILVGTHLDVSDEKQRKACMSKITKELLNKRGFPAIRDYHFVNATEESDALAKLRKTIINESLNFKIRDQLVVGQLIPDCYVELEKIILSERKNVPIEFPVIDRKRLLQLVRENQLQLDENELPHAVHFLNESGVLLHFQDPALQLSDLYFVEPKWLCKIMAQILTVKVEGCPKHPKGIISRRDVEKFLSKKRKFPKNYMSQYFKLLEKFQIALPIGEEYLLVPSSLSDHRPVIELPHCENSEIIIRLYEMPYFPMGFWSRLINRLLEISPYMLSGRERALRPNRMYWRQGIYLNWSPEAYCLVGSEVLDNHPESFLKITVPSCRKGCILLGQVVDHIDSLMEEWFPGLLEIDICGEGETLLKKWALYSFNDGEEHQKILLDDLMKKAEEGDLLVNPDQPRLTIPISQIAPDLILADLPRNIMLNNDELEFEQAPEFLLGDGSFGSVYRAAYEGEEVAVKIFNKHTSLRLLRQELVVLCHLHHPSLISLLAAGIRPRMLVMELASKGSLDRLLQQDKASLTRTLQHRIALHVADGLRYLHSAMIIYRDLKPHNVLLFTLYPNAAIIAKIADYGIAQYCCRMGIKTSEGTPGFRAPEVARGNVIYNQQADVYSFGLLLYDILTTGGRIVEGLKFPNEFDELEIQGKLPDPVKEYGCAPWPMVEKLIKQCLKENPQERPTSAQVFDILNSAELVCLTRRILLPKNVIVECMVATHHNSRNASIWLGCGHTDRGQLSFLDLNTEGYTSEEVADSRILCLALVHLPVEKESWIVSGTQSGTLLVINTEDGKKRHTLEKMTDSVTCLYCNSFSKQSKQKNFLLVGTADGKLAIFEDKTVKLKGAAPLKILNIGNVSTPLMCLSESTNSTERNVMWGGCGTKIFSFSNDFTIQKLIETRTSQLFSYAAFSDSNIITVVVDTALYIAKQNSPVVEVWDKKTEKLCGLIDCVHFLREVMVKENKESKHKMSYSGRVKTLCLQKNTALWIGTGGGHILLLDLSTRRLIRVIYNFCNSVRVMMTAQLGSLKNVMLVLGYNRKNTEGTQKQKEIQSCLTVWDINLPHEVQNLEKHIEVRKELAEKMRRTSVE
Experimental: Biochemical Assay for LRRK2 (SEQ. ID NO. 3)
Activity of LRRK2 kinase was determined spectroscopically using a coupled pyruvate kinase/lactate dehydrogenase assay that continuously monitors the ATP hydrolysis-dependent oxidation of NADH (e.g., Schindler et al. Science (2000) 289: 1938-1942). Assays were conducted in 384-well plates (100 μL final volume) using 26.4 nM LRRK2 (Thermo Fisher), 0.1 mM peptide substrate (RLGRDKYKTLRQIRQ), 1.5 units pyruvate kinase, 2.1 units lactate dehydrogenase, 1 mM phosphoenol pyruvate, 0.28 mM NADH and 1 mM ATP in assay buffer (100 mM Tris, pH 7.5, 15 mM MgCl2, 0.5 mM DTT, 0.004% (w/v) BSA, and 0.004% Triton X-100). Inhibition of LRRK2 was measured by adding serial diluted test compound (final assay concentration of 1% DMSO). A decrease in absorption at 340 nm was monitored continuously for 6 h at 30° C. on a multi-mode microplate reader (BioTek). The reaction rate was calculated using the 2-3 h time frame. The reaction rate at each concentration of compound was converted to percent inhibition using controls (i.e., reaction with no test compound and reaction with a known inhibitor) and IC50 values were calculated using software routines in Prism (GraphPad software).

SMILES | pIC50 (ULK1 kinase) | pIC50 [1] | pIC50 [2] | pIC50 (ULK2 kinase) | pIC50 (LRRK2 kinase)
CC/C(Nc1cnn(CC)c1)=C1/C(=O)Nc2ccc(C(=O)NCC3(C(F)(F)F)CC3)cc21 [Example 179] | ≥ 8.00 | ≥ 7.00 |  |  | ≥ 7.00
CC/C(Nc1cnn(C(F)F)c1)=C1/C(=O)Nc2ccc(C(=O)NCC3(C(F)(F)F)CC3)cc21 [Example 180] | ≥ 8.00 | 6.52 to 7.00 |  |  | ≥ 7.00
CC/C(Nc1cnn(CC(F)F)c1)=C1/C(=O)Nc2ccc(C(=O)NCC3(C(F)(F)F)CC3)cc21 [Example 181] | ≥ 8.00 | ≥ 7.00 |  |  | ≥ 7.00

More lines, now with the values ahead:

pIC50 (ULK1 kinase) | pIC50 [1] | pIC50 [2] | pIC50 (ULK2 kinase) | pIC50 (LRRK2 kinase) | SMILES
≥ 8.00 | ≥ 7.00 | ≥ 7.00 |  |  | CC/C(Nc1cnn(C2CCN(CC3CCC3)CC2)c1)=C1/C(=O)Nc2ccc(C(=O)NCC(C)C)cc21 [Example 40]
≥ 8.00 | ≥ 7.00 | ≥ 7.00 |  |  | CC/C(Nc1cnn(C2CCN(CCOC)CC2)c1)=C1/C(=O)Nc2ccc(C(=O)NCC(C)C)cc21 [Example 41]
≥ 8.00 | ≥ 7.00 | ≥ 7.00 |  |  | CC/C(Nc1cnn(C2CCN(C(C)C)CC2)c1)=C1/C(=O)Nc2ccc(C(=O)NCC3CCC3)cc21 [Example 43]
7.00 to 8.00 | 6.52 to 7.00 | ≥ 7.00 |  |  | CC/C(Nc1cccc(N2CCN(C(C)C)CC2)c1)=C1/C(=O)Nc2ccc(C(=O)NC[C@H]3CCCO3)cc21 [Example 46]
6.30 to 7.00 | < 6.22 |  | 6.30 to 7.00 | ≥ 7.00 | CC/C(Nc1cnn(C(C)C)c1)=C1/C(=O)Nc2ccc(C(C)=O)cc21 [Example 177]
